Structures can show the parent of a compound that is named as a salt. Where two headings read alike, the source gives them in different places.
Tests used:
[1] = system: PAXF1657 EV; test: 7-day cellular proliferation assay (CellTiter-Glo), PAXF1657 EV; type: cell-based
Summary of the method: (§1)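 Read-out is CellTiter-Glo luminescence after 7 days of continuous exposure, with compound re-dosed in fresh medium at day 3. Cells were seeded at 500/well and treated across 30 μM-0.0002 μM (10 points, 0.3% DMSO); baseline viability plates were read at compound addition.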

[2] = system: PAXF1657 KO Clone #4; test: 7-day cellular proliferation assay (CellTiter-Glo), PAXF1657 KO Clone #4; type: cell-based
Summary of the method: as §1

[3] = molecular target: T1, GRK2 (Homo sapiens, UniProt P25098); test: GRK2 Degradation Assay and Western Blot in PAXF1657 cells; type: cell-based; set-up: endogenous in cells; host or cells: PAXF1657; conditions: for DC50: PAXF1657, 24 h, read-out: Degradation Assay - Full Dose Response: IC50 (uM) [cell line: PAXF1657, time point: 24 h]
T1 sequence (P25098 1-689): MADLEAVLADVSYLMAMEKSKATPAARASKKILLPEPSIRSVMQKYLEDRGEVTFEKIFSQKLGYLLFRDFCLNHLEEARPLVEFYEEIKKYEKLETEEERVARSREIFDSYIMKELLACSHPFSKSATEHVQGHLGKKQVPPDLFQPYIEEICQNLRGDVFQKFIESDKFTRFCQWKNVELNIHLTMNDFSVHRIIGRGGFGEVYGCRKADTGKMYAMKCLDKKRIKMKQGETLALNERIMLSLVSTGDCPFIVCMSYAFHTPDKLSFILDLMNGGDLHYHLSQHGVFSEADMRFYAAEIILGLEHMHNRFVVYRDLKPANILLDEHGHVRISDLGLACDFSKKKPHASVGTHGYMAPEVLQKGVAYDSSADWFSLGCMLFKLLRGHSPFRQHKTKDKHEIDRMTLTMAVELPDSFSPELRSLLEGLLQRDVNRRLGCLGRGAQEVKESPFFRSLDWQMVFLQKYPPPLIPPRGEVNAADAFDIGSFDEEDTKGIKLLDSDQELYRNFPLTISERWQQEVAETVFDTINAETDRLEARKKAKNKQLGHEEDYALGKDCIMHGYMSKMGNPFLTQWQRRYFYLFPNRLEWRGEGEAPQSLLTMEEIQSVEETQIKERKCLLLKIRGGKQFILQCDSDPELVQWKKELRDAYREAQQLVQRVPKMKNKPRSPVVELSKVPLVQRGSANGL
Summary of the method: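 PAXF1657 cells grown to 70% confluency, then treated with compounds at 0–10 μM for 6 to 24 h at 37 °C. Lysates in PBS with 1% NP40 run on SDS-PAGE. GRK2 protein detected by western blot with β-actin as loading reference, using ECL chemiluminescence.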

[4] = molecular target: T1, GRK2; test: GRK2 Inhibition Assay (TR-FRET, Example 1); type: biochemical
Summary of the method: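 GRK2 (1 nM) pre-incubated 30 min RT with compounds in HEPES/MgCl2/DTT/Tween-20/EGTA buffer, then reacted 90 min RT with 7 μM ATP and 50 nM ULight-TopoIIα substrate. Stopped with EDTA plus Eu anti-TopoIIα antibody; TR-FRET read after 60 min.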

[5] = proliferation, read-out: GeoMean IC50 (UM) PAXF1657 EV
[6] = proliferation, read-out: GeoMean IC50 (uM) PAXF1657 KO Clone #4
[7] = Conc 0.3 uM, read-out: Degradation Assay - 3 point: Degradation (%)
[8] = Conc 1 uM, read-out: Degradation Assay - 3 point: Degradation (%)
[9] = Conc 3 uM, read-out: Degradation Assay - 3 point: Degradation (%)
[10] = Table 4, Example 1 assay, read-out: Enzymatic GRK2 IC50: Av IC50 GRK2
[11] = 168 h, 7-day, read-out: 7-day proliferation assay: IC50 GeoMean (uM) [Cell Line: PAXF1657 EV]
[12] = 168 h, 7-day, read-out: 7-day proliferation assay: IC50 GeoMean (uM) [Cell Line: PAXF1657 KO Clone #4]
[13] = 1 uM, PAXF1657 EV, 24 hrs, read-out: % GRK2 degradation at 1 uM in PAXF1657 EV (24 hrs)
[14] = 3 uM, PAXF1657 EV, 24 hrs, read-out: % GRK2 degradation at 3 uM in PAXF1657 EV (24 hrs)
[15] = TR-FRET, 7 μM ATP, read-out: Enzymatic GRK2 Assay: IC50 (nM) (Example 1)
[16] = 0.3 uM, PAXF1657 EV, 24 hrs, read-out: % GRK2 degradation at 0.3 uM in PAXF1657 EV (24 hrs)

inhibition at 0.3 µM [3, 7] [%]	inhibition at 1 µM [3, 8] [%]	inhibition at 3 µM [3, 9] [%]	IC50 [4, 10] [nM]	DC50 [3] [µM]	inhibition at 1 µM [3, 13] [%]	inhibition at 3 µM [3, 14] [%]	IC50 [4, 15] [nM]	% GRK2 degradation at 0.03 uM in PAXF1657 EV (24 hrs) ([3]; 0.03 uM, PAXF1657 EV, 24 hrs) [%]	% GRK2 degradation at 0.1 uM in PAXF1657 EV (24 hrs) ([3]; 0.1 uM, PAXF1657 EV, 24 hrs) [%]	inhibition at 0.3 µM [3, 16] [%]	% GRK2 degradation at 10 uM in PAXF1657 EV (24 hrs) ([3]; 10 uM, PAXF1657 EV, 24 hrs) [%]	GRK2 degradation, dose dependence (FIGS. 1A-1D) ([3]; 24-hour treatment in PAXF1657 cells)	SMILES	IC50 [1, 5] [µM]	IC50 [2, 6] [µM]	IC50 [1, 11] [µM]	IC50 [2, 12] [µM]
90	93.7	89	16.1										C[C@@H](NC(=O)c1cccc(NCc2nnc(-c3ccncn3)n2C)c1)c1cccc(C(=O)N2CCC(CCCN3CCN(c4ccc5c(c4)CN(C4CCC(=O)NC4=O)C5=O)CC3)CC2)c1 (stereo partly drawn) [Compound D119, N-((1R)-1-(3-(4-(3-(4-(2-(2,6-dioxopiperidin-3-yl)-1-oxoisoindolin-5-yl)piperazin-1-yl)propyl)piperidine-1-carbonyl)phenyl)ethyl)-3-((4-methyl-5-(pyrimidin-4-yl)-4H-1,2,4-triazol-3-yl)methylamino)benzamide hydrochloride]	0.116	2.73		
56	58	34	> 1000										Cc1ncsc1-c1ccc(CNC(=O)[C@@H]2C[C@@H](O)CN2C(=O)[C@@H](NC(=O)COCCCOCCCCCOc2ccc([C@H](C)NC(=O)c3cccc(NCc4nnc(-c5ccncn5)n4C)c3)cc2)C(C)(C)C)cc1 [Compound D151]	0.3	9.65		
26.1	45.9	66.6	54.9										Cc1ncsc1-c1ccc(CNC(=O)[C@@H]2C[C@@H](O)CN2C(=O)[C@@H](NC(=O)CCCCOCCOCCOCCCCCCOc2cccc(CNC(=O)c3cccc(NCc4nnc(-c5ccncn5)n4C)c3)c2)C(C)(C)C)cc1 [Compound D109, (2S,4R)-1-((S)-2-(tert-butyl)-21-(3-((3-(((4-methyl-5-(pyrimidin-4-yl)-4H-1,2,4-triazol-3-yl)methyl)amino)benzamido)methyl)phenoxy)-4-oxo-9,12,15-trioxa-3-azahenicosan-1-oyl)-4-hydroxy-N-(4-(4-methylthiazol-5-yl)benzyl)pyrrolidine-2-carboxamide]	0.68	5.17		
46.7	21.2	0.218	14.1	2.57									Cc1ncsc1-c1ccc(CNC(=O)[C@@H]2C[C@@H](O)CN2C(=O)[C@@H](NC(=O)CCCOCCOCCOCCCCCCCCOc2ccc([C@@H](C)NC(=O)c3cccc(NCc4nnc(-c5ccncn5)n4C)c3)cc2)C(C)(C)C)cc1 [Compound D148]	0.1	8.31		
					70	73	< 100						CN[C@@H](C)C(=O)N[C@H](C(=O)N1CCC[C@H]1c1nc(C(=O)c2cccc(OCc3cn(CCCCCCOc4cccc(CNC(=O)c5cccc(NCc6nnc(-c7ccncn7)n6C)c5)c4)nn3)c2)cs1)C1CCCCC1 [Compound D102, N-(3-((6-(4-((3-(2-((S)-1-((S)-2-cyclohexyl-2-((S)-2-(methylamino)propanamido)acetyl)pyrrolidin-2-yl)thiazole-4-carbonyl)phenoxy)methyl)-1H-1,2,3-triazol-1-yl)hexyl)oxy)benzyl)-3-(((4-methyl-5-(pyrimidin-4-yl)-4H-1,2,4-triazol-3-yl)methyl)amino)benzamide]			< 1	1 to 10
86	92	95	13.6	0.23									C[C@@H](NC(=O)c1cccc(NCc2nnc(-c3ccncn3)n2C)c1)c1cccc(OCCCCCCOCCOCC(=O)N2CCN(c3cc4c(cc3F)C(=O)N(C3CCC(=O)NC3=O)C4=O)CC2)c1 (stereo partly drawn) [Compound D139, N-((1R)-1-(3-(6-(2-(2-(4-(2-(2,6-dioxopiperidin-3-yl)-6-fluoro-1,3-dioxoisoindolin-5-yl)piperazin-1-yl)-2-oxoethoxy)ethoxy)hexyloxy)phenyl)ethyl)-3-((4-methyl-5-(pyrimidin-4-yl)-4H-1,2,4-triazol-3-yl)methylamino)benzamide]	0.2	26.6		
					55	71	< 100	8	8	40	58	Dose dependent	Cn1c(CNc2cccc(C(=O)NCc3cc(OCCCCCCOCCOCCOCCCCCC(=O)Nc4cccc5c4CN(C4CCC(=O)NC4=O)C5=O)ccc3F)c2)nnc1-c1ccncn1 (centres unmarked) [Compound D66, N-(5-((6-(2-(2-((6-((2-(2,6-dioxopiperidin-3-yl)-1-oxoisoindolin-4-yl)amino)-6-oxohexyl)oxy)ethoxy)ethoxy)hexyl)oxy)-2-fluorobenzyl)-3-(((4-methyl-5-(pyrimidin-4-yl)-4H-1,2,4-triazol-3-yl)methyl)amino)benzamide]			> 10	> 10
7.97	24	53.8	44.7										C[C@@H](NC(=O)c1cccc(NCc2nnc(-c3ccncn3)n2C)c1)c1cccc(C(=O)N2CC(CN3CCN(c4ccc5c(c4)CN(C4CCC(=O)NC4=O)C5=O)CC3)C2)c1 (stereo partly drawn) [Compound D121, N-((1R)-1-(3-(3-((4-(2-(2,6-dioxopiperidin-3-yl)-1-oxoisoindolin-5-yl)piperazin-1-yl)methyl)azetidine-1-carbonyl)phenyl)ethyl)-3-((4-methyl-5-(pyrimidin-4-yl)-4H-1,2,4-triazol-3-yl)methylamino)benzamide hydrochloride]	11.4	> 30		
					-21	-18	< 100			-12			Cc1ncsc1-c1ccc(CNC(=O)[C@@H]2C[C@@H](O)CN2C(=O)[C@@H](NC(=O)CCCCCOCCOCCOCCCCCCOc2cccc([C@H](C)NC(=O)c3cccc(NCc4nnc(-c5ccncn5)n4C)c3)c2)C(C)(C)C)cc1 [Compound D78, (2S,4R)-1-((S)-2-(tert-butyl)-22-(3-((S)-1-(3-(((4-methyl-5-(pyrimidin-4-yl)-4H-1,2,4-triazol-3-yl)methyl)amino)benzamido)ethyl)phenoxy)-4-oxo-10,13,16-trioxa-3-azadocosan-1-oyl)-4-hydroxy-N-(4-(4-methylthiazol-5-yl)benzyl)pyrrolidine-2-carboxamide]			< 1	1 to 10
					18	53	< 100			33			Cn1c(CNc2cccc(C(=O)NCc3cccc(OCCCCCn4cc(CCCC(=O)Nc5cccc6c5CN(C5CCC(=O)NC5=O)C6=O)nn4)c3)c2)nnc1-c1ccncn1 (centres unmarked) [Compound D59]			> 10	> 10

SMILES	inhibition at 0.3 µM [3, 7] [%]	inhibition at 1 µM [3, 8] [%]	inhibition at 3 µM [3, 9] [%]	IC50 [4, 10] [nM]	DC50 [3] [µM]	inhibition at 1 µM [3, 13] [%]	inhibition at 3 µM [3, 14] [%]	IC50 [4, 15] [nM]	% GRK2 degradation at 0.03 uM in PAXF1657 EV (24 hrs) ([3]; 0.03 uM, PAXF1657 EV, 24 hrs) [%]	% GRK2 degradation at 0.1 uM in PAXF1657 EV (24 hrs) ([3]; 0.1 uM, PAXF1657 EV, 24 hrs) [%]	inhibition at 0.3 µM [3, 16] [%]	% GRK2 degradation at 10 uM in PAXF1657 EV (24 hrs) ([3]; 10 uM, PAXF1657 EV, 24 hrs) [%]	GRK2 degradation, dose dependence (FIGS. 1A-1D) ([3]; 24-hour treatment in PAXF1657 cells)	IC50 [1, 5] [µM]	IC50 [2, 6] [µM]	IC50 [1, 11] [µM]	IC50 [2, 12] [µM]
C[C@@H](NC(=O)c1cccc(NCc2nnc(-c3ccncn3)n2C)c1)c1cccc(OCCCCCCOCCOCCOCCCC(=O)Nc2cccc3c2CN(C2CCC(=O)NC2=O)C3=O)c1 (stereo partly drawn) [Compound D163, N-((1R)-1-(3-(6-(2-(2-(4-(2-(2,6-dioxopiperidin-3-yl)-1-oxoisoindolin-4-ylamino)-4-oxobutoxy)ethoxy)ethoxy)hexyloxy)phenyl)ethyl)-3-((4-methyl-5-(pyrimidin-4-yl)-4H-1,2,4-triazol-3-yl)methylamino)benzamide]	74.4	81.5	89.6	16.6										0.37	> 30		

— patent publication US20240174637A1, “DEGRADERS OF GRK2 AND USES THEREOF” (Sonata Therapeutics, Inc., priority 2021, published 2024)
